Data set [1] in a line: Ross-Miles foam test based upon ASTM D 1173-53. It counts as physicochemical. The settings on record: 0.1 wt % solution. The procedure:
In this test, a 0.1 wt % solution of the surfactant is added from an elevated foam pipette to a foam receiver containing the same solution. The foam height is measured at the completion of the addition (“Initial Foam Height”) and the time required for the foam to dissipate is recorded (“Time to 0 Foam”). This test provides a comparison between the foaming characteristics of various surfactant solutions. In general, in coatings, inks, and agricultural formulations, foam is undesirable because is complicates handling and can lead to coating and print defects, and to inefficient application of agricultural materials.

The nature of data set [2]: Dynamic surface tension of aqueous solutions, maximum bubble pressure method. The text has this:
In the following Examples dynamic surface tension data were obtained for aqueous solutions of various compounds using the maximum bubble pressure method at bubble rates from 0.1 bubbles/second (b/s) to 20 b/s. […] In practical terms, high bubble rates correspond to high printing speeds in lithographic printing, high spray or roller velocities in coating applications, and rapid application rates for agricultural products.
This value is a measure of the efficiency of a surfactant.
The critical aggregation concentrations (solubility limit or critical micelle concentration) were determined by intersection of the linear portion of a surface tension/ In concentration curve with the limiting surface tension as is described in many textbooks. […]
Process solutions containing 0.1 weight percent of a surfactant derived from 2,5,8,11-tetramethyl-6-dodecyne-5,8-diol or containing a fluorosurfactant, potassium perfluorooctane carboxylate provided by 3M of […]. were prepared in order to compare the equilibrium surface tension (EST) and dynamic surface tension (DST). The EST for both solutions was measured using the Wilhemy plate method on a […] manufactured by Kruss, Inc. of Charlotte, N.C. The DST of each process solution was measured via the maximum bubble pressure method.

Data set [3] can be described thus: Equilibrium surface tension, Wilhemy plate method. It counts as physicochemical. The settings on record: 0.1 wt %.
Procedure: Process solutions containing 0.1 weight percent of a surfactant derived from 2,5,8,11-tetramethyl-6-dodecyne-5,8-diol or containing a fluorosurfactant, potassium perfluorooctane carboxylate provided by 3M of St. Louis, Mo. were prepared in order to compare the equilibrium surface tension (EST) and dynamic surface tension (DST). The EST for both solutions was measured using the Wilhemy plate method on a Kruss BP3 bubble pressure tensiometer manufactured by Kruss, Inc. of Charlotte, N.C.

Where two headings read alike, the source gives them in different places.

Regarding “10 mole EO/2 mole PO block derivative of 2,4,7,9-tetramethyl-5-decyne-4,7-diol [Example 5]”, in data set [1], the “RM Foam initial (Initial Foam Height)” value came to 2.1 cm and the “RM Foam, foam height after 5 minutes” value came to 1.3 cm. Further, the “Sol Limit / critical aggregation concentration (CAG)” value in data set [2] (solubility limit or critical micelle concentration in water) is “(0.78) wt %”.

In data set [3], `O=C([O-])C(F)(F)C(F)(F)C(F)(F)C(F)(F)C(F)(F)C(F)(F)C(F)(F)C(F)(F)F.[K+]` [Fluorosurfactant, potassium perfluorooctane carboxylate, reference compound] registered an EST of 21.2 dyne/cm.

As to “3.5 mole ethoxylate of 2,4,7,9-tetramethyl-5-decyne-4,7-diol capped with 2 moles of propylene oxide [Example 3]”, in data set [1], the “RM Foam initial (Initial Foam Height)” value is on record as 1.0 cm and the “RM Foam t to 0 (Time to 0 Foam)” value was 10 s. Further, the “Sol Limit / critical aggregation concentration (CAG)” value in data set [2] is 0.21 wt %.

The values above are taken from patent US7348300B2, “Acetylenic diol ethylene oxide/propylene oxide adducts and processes for their manufacture” (Air Products and Chemicals, Inc., priority 1999, dated 2008).
